Laboratory results from US20250375129A1, “USE OF BLINK REFLEX FOR ATTENTION-DEFICIT/HYPERACTIVITY DISORDER (ADHD) RESPONSE MONITORING AND/OR TREATMENT SELECTION” (Blinktbi, Inc., priority 2022, published 2025).
Entries after “also recorded” stand apart in the source; their conditions may differ.

Tested on: blink reflex
Assay: Blink reflex response parameters in ADHD patients before and 1 hour after their prescribed ADHD medication versus non-ADHD controls (pilot study)
Format: in vivo, humans
Settings: for Max closing velocity, effect of medication type (in words): compared to controls and participants before taking their ADHD medications; for Delta 30, Estimate of Fixed Effects / Excursions, Estimate of Fixed Effects / Initial Velocity, Estimate of Fixed Effects / Max Closing Velocity, Estimate of Fixed Effects / Differential Latency, Estimate of Fixed Effects: Model 3 mixed model by medication type; for Delta 30, Estimate of Fixed Effects / Excursions, Estimate of Fixed Effects / Initial Velocity, Estimate of Fixed Effects / Max Closing Velocity, Estimate of Fixed Effects / Differential Latency, Estimate of Fixed Effects / Max Closing Velocity, Estimate of Fixed Effects, further analysis: relative to Med_type = 4 (Control); for Differential Latency, Estimate of Fixed Effects: AMP n=20, ATX n=2, MPH n=2; for Max Closing Velocity, Estimate of Fixed Effects, further analysis: Model 3 with confounders hours of sleep, urine specific gravity and age

Row | SMILES | Delta 30, effect of medication type (in words) (Model 3) | Differential Latency, effect of medication type (in words) (Model 3) | Max closing velocity, effect of medication type (in words) (Model 3) | Delta 30, Estimate of Fixed Effects | Excursions, Estimate of Fixed Effects | Initial Velocity, Estimate of Fixed Effects | Max Closing Velocity, Estimate of Fixed Effects | Differential Latency, Estimate of Fixed Effects | Max Closing Velocity, Estimate of Fixed Effects, further analysis | Excursions, effect of medication type (in words) (Model 3) | Initial Velocity, effect of medication type (in words) (Model 3) | Blink reflex parameters predictive for treatment type (in words) (Model 3 conclusion, ATX=2, MPH=2, AMP=20 participants)
1 | CNCC[C@@H](Oc1ccccc1C)c1ccccc1 [ATX] | statistically significant | statistically significant | associated with an increase | −4.184 | 13.866 | .532 | 2.659 | −2.456 | 2.277 |  |  | 
2 | COC(=O)C(c1ccccc1)C1CCCCN1 (stereo not drawn) [MPH, methylphenidate] | statistically significant | statistically significant | associated with an increase | −1.756 | 14.707 | .578 | 1.378 | −0.980 | 1.265 | statistically significant | statistically significant; also recorded: slight increase | particularly predictive
